Earlier results on two molecules are cited in patent US11590241B2, “Nanoparticle conjugated synthetic opioid prodrugs and methods of their uses” (VIRGINIA COMMONWEALTH UNIVERSITY, priority 2016, dated 2023).

The conditions of data set [1]: extensive hepatic first-pass metabolism.
Data set [2] addresses T1, MOR (Homo sapiens, UniProt P35372).
T1 construct: expressed in transfected cells; host or cells: CHO (Chinese hamster ovary) cells, membrane preparation
As to conditions: read-out: Ki (nM) μ; [3H]naloxone; data from Li et al. 2009.

In data set [3] the target is T1, MOR. As to conditions: data from Li et al. 2009.
The next data set relates to mice. Conditions: parent compound, earlier data.
The subject of another data set is morphine-pelleted mice. As to conditions: U.S. Pat. No. 8,980,908.

T1 sequence (P35372 whole entry): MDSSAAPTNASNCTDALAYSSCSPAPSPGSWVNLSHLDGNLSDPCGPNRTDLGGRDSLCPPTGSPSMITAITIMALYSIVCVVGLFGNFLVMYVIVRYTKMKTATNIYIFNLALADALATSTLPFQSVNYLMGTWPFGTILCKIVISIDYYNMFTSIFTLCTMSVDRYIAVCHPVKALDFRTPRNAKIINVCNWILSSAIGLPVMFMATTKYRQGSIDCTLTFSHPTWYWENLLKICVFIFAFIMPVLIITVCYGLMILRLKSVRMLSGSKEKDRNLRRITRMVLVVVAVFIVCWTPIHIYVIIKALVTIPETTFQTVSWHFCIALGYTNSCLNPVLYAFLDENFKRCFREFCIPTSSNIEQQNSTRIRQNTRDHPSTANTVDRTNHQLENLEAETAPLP

Consider `C=CCN1CC[C@]23c4c5ccc(O)c4O[C@H]2C(=O)CC[C@@]3(O)[C@H]1C5` [Naloxone], for which the oral bioavailability in data set [1] was about 2%.
As for `O=C(Cc1ccncc1)N[C@@H]1CC[C@@]2(O)[C@H]3Cc4ccc(O)c5c4[C@@]2(CCN3CC2CC2)[C@H]1O5` [NAP, 17-cyclopropylmethyl-3,14 β-dihydroxy-4,5 α-epoxy-6 β-[(4-pyridyl)acetamido]morphinan], the Ki (usually the dissociation constant of the complex between target and ligand, obtained from inhibition or displacement) on MOR [2] was 0.37 ± 0.07 nM. In addition, the “MOR [35S]GTPγS Binding % Emax of DAMGO” value at MOR [3] is reported as 22.7 ± 0.8%. In addition, the EC50 (in general, the concentration at which the effect is half-maximal) at MOR [3] (read-out: MOR [35S]GTPγS Binding EC50) is 1140 ± 380 pM. For the same molecule, in the data set on mice, the “AD50, blocking the antinociceptive effect of morphine” value is on record as 4.98 mg/kg and the “agonist activity (antinociception)” value is reported as “did not carry any significant agonist activity”. For the same molecule, the intestinal motility entry with morphine-pelleted mice is “increase intestinal motility”.
